US5668165A, “Small molecule inhibition of RNA/ligand binding” (Scriptgen Pharmaceuticals, Inc., priority 1995, dated 1997)
“Also recorded” adds a separate entry of the source. Where two headings read alike, the source gives them in different places. Starred links: 1 amine or outer side, 2 acyl side, 3 side chain; linkers in the order of their positions; H or OH if unused. Positions of bridges follow the written chain, without caps; N, C: chain ends. Non-standard residues stand in square brackets, D forms with d. Residues, ends and D or L forms follow the SMILES beside them. *: point of attachment. X1 = NC1=N[C@@H]([C@H](N[*:1])C(=O)[*:2])C[C@H](O)N1; ΔAla(Z-3-ureido) = NC(=O)N/C=C(\N)C(=O)O; β3hOrn = NCCC[C@H](N)CC(=O)*; Dap = NC[C@H](N)C(=O)O

Assays:
[1] = molecular target: T1, binding of HIV Rev protein to the HIV RRE (Human immunodeficiency virus type 1 group M subtype B, UniProt P04618); experiment: Rev-RRE nitrocellulose filter-binding assay
T1 construct: made in house; host or cells: E. coli
Experimental: A 69-nt ^32 P-labelled RNA probe containing a high affinity Rev-binding site (Bartel et al., Cell 67:529, 1991 ) was incubated with purified E. coli-derived Rev protein in the absence and presence of increasing concentrations of Compound 15. Reactions conditions were those that maximize the specificity of the interaction between Rev and the RRE, i.e., 150 mM KCl and a 100-fold molar excess of tRNA.
After a 30-minute incubation at room temperature, a nitrocellulose filter-binding assay was performed to quantify the binding of Rev to the RRE (Daly et al., Biochem. 32:10497, 1993). In this assay, RNA is retained on the filter only by virtue of binding to Rev. Filter-associated radioactivity was quantified in a Wallac Microbeta counter. The fraction of input RNA retained on the filter was plotted as a function of Compound 15 concentration, and the IC50 (the concentration required to inhibit 50% Rev-RRE binding) was determined by linear regression.

[2] = system: binding of Rev to the RRE (67-nt RNA probe containing a high affinity Rev-binding site); design: species or system HIV; conditions: for concentration at which inhibitory to Rev binding: third group of aminoglycosides; for inhibiting the binding of Rev to the RRE: Rev/RRE binding inhibition assay, summary of thirteen 2-DOS aminoglycosides; for ability to inhibit Rev binding (inhibitory at any concentration tested): 67-nt 32P-labeled RNA probe, gel mobility shift
Experimental: To test whether antibiotics can block binding of Rev to the RRE, a 67-nt ^32 P-labeled RNA probe containing a high affinity Rev-binding site was incubated with purified E. coli derived Rev protein in the presence of various antibiotics. Binding of Rev to the RNA probe was quanitified by an RNA gel mobility shift assay.

[3] = Table 2, 2,5-Bis(3-amidinophenyl)furans, read-out: IC50 against Rev/RRE binding
[4] = Table 3, 2,5-Bis(3-bisamidinophenyl)thiophene
[5] = Table 3, 2,5-Bis(3-bisamidinophenyl)thiophene, read-out: IC50 against Rev/RRE binding

T1 sequence (P04618 whole entry, looked up): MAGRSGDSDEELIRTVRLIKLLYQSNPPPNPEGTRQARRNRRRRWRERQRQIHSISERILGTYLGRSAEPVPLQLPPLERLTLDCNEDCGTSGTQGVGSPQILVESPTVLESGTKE

Molecule: CN(C)CCCNC(=N)c1cccc(-c2ccc(-c3cccc(C(=N)NCCCN(C)C)c3)o2)c1 [Example 15, 2,5-Bis [3-(3-N,N-dimethylaminopropylamidino)phenyl]furan]
- IC50 ([1]; FIG. 2, 150 mM KCl, 100-fold molar excess of tRNA, read-out: IC50 (concentration required to inhibit 50% Rev-RRE binding)): 1 µM

Molecule: CCN(CC)CCCNC(=N)c1cccc(-c2ccc(-c3cccc(C(=N)NCCCN(CC)CC)c3)o2)c1 [Example 16, 2,5-Bis[3-N,N-diethylaminopropylamidinophenyl]furan]
- IC50 [1, 3]: 0.75 µM

Molecule: CN(C)CCCCNC(=N)c1cccc(-c2ccc(-c3cccc(C(=N)NCCCCN(C)C)c3)o2)c1 [Example 17, 2,5-Bis[3-(4-N,N-dimethylaminobutyl-amidino)phenyl]furan]
- IC50 [1, 3]: 1.7 µM

Molecule: CN(C)CCCCCCNC(=N)c1cccc(-c2ccc(-c3cccc(C(=N)NCCCCCCN(C)C)c3)o2)c1 [Example 18, 2,5-Bis[3-(6-N,N-dimethylaminohexylamidino)phenyl]furan]
- IC50 [1, 3]: 3.9 µM

Molecule: c1cc(C2=NCCN2)cc(-c2ccc(-c3cccc(C4=NCCN4)c3)o2)c1 [Example 19, 2,5-Bis(3-imidazolinophenyl)furan]
- IC50 [1, 3]: 4 µM

Molecule: N=C(NCc1cccnc1)c1cccc(-c2ccc(-c3cccc(C(=N)NCc4cccnc4)c3)s2)c1 [Example 20, 2,5-Bis[3-pyridylmethylamidinophenyl]thiophene]
- IC50 against Rev/RRE binding [1, 4]: not active

Molecule: CN1CCCC1CCNC(=N)c1cccc(-c2ccc(-c3cccc(C(=N)NCCC4CCCN4C)c3)s2)c1 (stereo not drawn) [Example 21, 2,5-Bis{3-[2-(1-methyl-2-pyrrolidinyl)ethylamidino]phenyl}thiophene]
- IC50 [1, 5]: 2.4 µM

Molecule: CCN(CC)CCCNC(=N)c1cccc(-c2ccc(-c3cccc(C(=N)NCCCN(CC)CC)c3)s2)c1 [Example 22, 2,5-Bis-[3-(3-N,N-diethylaminopropyl-amidino)phenyl]thiophene]
- IC50 [1, 5]: 2.8 µM

Molecule: N=C(NCCN1CCCC1)c1cccc(-c2ccc(-c3cccc(C(=N)NCCN4CCCC4)c3)s2)c1 [Example 23, 2,5-Bis[3-(2-pyrrolidinoethylamidino)phenyl]thiophene]
- IC50 against Rev/RRE binding [1, 4]: not active

Molecule: NCC[C@H](O)C(=O)N[C@@H]1C[C@H](N)[C@@H](O[C@H]2O[C@H](CN)[C@@H](O)[C@H](O)[C@H]2O)[C@H](O)[C@H]1O[C@H]1O[C@H](CO)[C@@H](O)[C@H](N)[C@H]1O [amikacin]
- concentration at which inhibitory to Rev binding ([2]; 67-nt RNA probe): 100 μm
- inhibiting the binding of Rev to the RRE [2]: effective

Molecule: CC1(C)S[C@@H]2[C@H](NC(=O)[C@H](N)c3ccccc3)C(=O)N2[C@H]1C(=O)O [ampicilin]
- ability to inhibit Rev binding (inhibitory at any concentration tested) [2]: no

Molecule: CC1(C)S[C@@H]2[C@H](NC(=O)C(C(=O)O)c3ccccc3)C(=O)N2[C@H]1C(=O)O (stereo partly drawn) [carbenicilin]
- ability to inhibit Rev binding (inhibitory at any concentration tested) [2]: no

Molecule: O=C(N[C@H](CO)[C@H](O)c1ccc([N+](=O)[O-])cc1)C(Cl)Cl [chloramphenicol]
- ability to inhibit Rev binding (inhibitory at any concentration tested) [2]: no

Molecule: CCC[C@@H]1C[C@@H](C(=O)N[C@@H]([C@H]2O[C@H](SC)[C@H](O)[C@@H](O)[C@H]2O)[C@H](C)Cl)N(C)C1 [clindamycin A]
- ability to inhibit Rev binding (inhibitory at any concentration tested) [2]: no

Molecule: CN[C@@H]1[C@H](O[C@H]2[C@H](O[C@H]3[C@H](O)[C@@H](O)[C@H](NC(=N)N)[C@@H](O)[C@@H]3NC(=N)N)O[C@@H](C)[C@]2(O)CO)O[C@@H](CO)[C@H](O)[C@H]1O [dihydrostreptomycin]
- ability to inhibit Rev binding (inhibitory at any concentration tested) [2]: no inhibitory activity at any concentration tested

Molecule: Cn1cc(NC(=O)c2cc(NC(=O)c3cc(NC=O)cn3C)cn2C)cc1C(=O)NCCC(=N)N [distamycin A]
- ability to inhibit Rev binding (inhibitory at any concentration tested) [2]: no

Molecule: CC[C@H]1OC(=O)[C@H](C)[C@@H](O[C@H]2C[C@@](C)(OC)[C@@H](O)[C@H](C)O2)[C@H](C)[C@@H](O[C@@H]2O[C@H](C)C[C@H](N(C)C)[C@H]2O)[C@](C)(O)C[C@@H](C)C(=O)[C@H](C)[C@@H](O)[C@]1(C)O [erythromycin]
- ability to inhibit Rev binding (inhibitory at any concentration tested) [2]: no

Molecule: CN[C@H]1C[C@@H](N)[C@H](O)[C@@H](O[C@@H]2O[C@H](CO)[C@H](O)[C@@H]3OC4(O[C@H]23)O[C@H]([C@@H](N)CO)[C@H](O)[C@H](O)[C@H]4O)[C@@H]1O (stereo partly drawn) [hygromyoin B, hygromycin B]
- ability to inhibit Rev binding (inhibitory at any concentration tested) [2]: no inhibitory activity at any concentration tested

Molecule: NC[C@H]1O[C@H](O[C@H]2[C@H](O)[C@@H](O[C@H]3O[C@H](CO)[C@@H](O)[C@H](N)[C@H]3O)[C@H](N)C[C@@H]2N)[C@H](N)[C@@H](O)[C@@H]1O [kanamycin B]
- concentration at which inhibitory to Rev binding ([2]; 67-nt RNA probe): 100 μm
- inhibiting the binding of Rev to the RRE [2]: effective

Molecule: C[C@H]1O[C@H](O[C@H]2[C@H](O)[C@@H](O)[C@@H](O)[C@H](O)[C@@H]2O)[C@@H](N)C[C@@H]1NC(=N)C(=O)O [kasugamycin]
- ability to inhibit Rev binding (inhibitory at any concentration tested) [2]: no inhibitory activity at any concentration tested

Molecule: CCC[C@@H]1C[C@@H](C(=O)N[C@@H]([C@H]2O[C@H](SC)[C@H](O)[C@@H](O)[C@H]2O)[C@@H](C)O)N(C)C1 [lincomycin]
- ability to inhibit Rev binding (inhibitory at any concentration tested) [2]: no

Molecule: NC[C@@H]1O[C@H](O[C@H]2[C@@H](O)[C@H](O[C@@H]3[C@@H](O)[C@H](N)C[C@H](N)[C@H]3O[C@H]3O[C@H](CO)[C@@H](O)C[C@H]3N)O[C@@H]2CO)[C@H](N)[C@@H](O)[C@@H]1O[C@H]1O[C@H](CO)[C@@H](O)[C@H](O)[C@@H]1O [lividomycin A]
- ability to inhibit Rev binding (inhibitory at any concentration tested) [2]: significant inhibitory ability
- concentration that achieves inhibition of Rev binding ([2]; 67-nt RNA probe, neomycin B: complete inhibition): 10 µM
- inhibiting the binding of Rev to the RRE [2]: exceptional inhibitory potential

Molecule: NC[C@H]1O[C@H](O[C@H]2[C@H](O)[C@@H](O)[C@H](N)C[C@@H]2N)[C@H](N)[C@@H](O)[C@@H]1O [neamine]
- concentration at which inhibitory to Rev binding ([2]; 67-nt RNA probe): 100 μm
- inhibiting the binding of Rev to the RRE [2]: effective

Molecule: NC[C@@H]1O[C@H](O[C@H]2[C@@H](O)[C@H](O[C@@H]3[C@@H](O)[C@H](N)C[C@H](N)[C@H]3O[C@H]3O[C@H](CO)[C@@H](O)[C@H](O)[C@H]3N)O[C@@H]2CO)[C@H](N)[C@@H](O)[C@@H]1O [paromomycin]
- ability to inhibit Rev binding (inhibitory at any concentration tested) [2]: no inhibitory activity at any concentration tested; also recorded: completely inactive

Molecule: NC[C@H]1O[C@H](O[C@H]2[C@H](O[C@@H]3O[C@H](CO)[C@@H](O)[C@H]3O)[C@@H](O)[C@H](N)C[C@@H]2N)[C@H](N)[C@@H](O)[C@@H]1O [ribostamycin]
- concentration at which inhibitory to Rev binding ([2]; 67-nt RNA probe): 100 μm
- inhibiting the binding of Rev to the RRE [2]: effective

Molecule: CN[C@@H]1[C@@H](O)[C@@H](O[C@@H]2[C@@H](O)[C@H](O[C@H]3OC(CN)=CC[C@H]3N)[C@@H](N)C[C@H]2N)OC[C@]1(C)O [sisomicin]
- concentration at which inhibitory to Rev binding ([2]; 67-nt RNA probe): 100 μm
- inhibiting the binding of Rev to the RRE [2]: effective

Molecule: CN[C@@H]1[C@H](O)[C@H](NC)[C@H]2O[C@@]3(O)C(=O)C[C@@H](C)O[C@H]3O[C@@H]2[C@H]1O [specitinomycin]
- ability to inhibit Rev binding (inhibitory at any concentration tested) [2]: no inhibitory activity at any concentration tested
- ability to inhibit Rev binding (inhibitory at any concentration tested) ([2]; listed as spectinoymycin): inactive

Molecule: [H]/N=C(/N)N[C@H]1[C@H](O)[C@@H](O)[C@H](O[C@@H]2O[C@@H](C)[C@](O)(C=O)[C@H]2O[C@@H]2O[C@@H](CO)[C@H](O)[C@@H](O)[C@@H]2NC)[C@@H](N/C(N)=N\[H])[C@@H]1O [stretomycin, streptomycin]
- ability to inhibit Rev binding (inhibitory at any concentration tested) [2]: no inhibitory activity at any concentration tested
- ability to inhibit Rev binding (inhibitory at any concentration tested) ([2]; listed as streptomycin): inactive

Molecule: CN(C)[C@@H]1C(=O)C(C(N)=O)=C(O)[C@@]2(O)C(=O)C3=C(O)c4c(O)cccc4[C@@](C)(O)[C@H]3C[C@@H]12 [tetracycline]
- ability to inhibit Rev binding (inhibitory at any concentration tested) [2]: no

Molecule: NCCC[C@H](N)CC(=O)N[C@H]1CNC(=O)[C@H]([C@H]2C[C@H](O)NC(N)=N2)NC(=O)/C(=C/NC(N)=O)NC(=O)[C@H](CO)NC(=O)[C@H](CO)NC1=O [viomycin] (β3hOrn-[Dap]SS[ΔAla(Z-3-ureido)][X1]; lactam 1-C)
- ability to inhibit Rev binding (inhibitory at any concentration tested) [2]: no

Molecule: butirosin
- ability to inhibit Rev binding (inhibitory at any concentration tested) [2]: no inhibitory activity at any concentration tested

Molecule: capreomycin
- ability to inhibit Rev binding (inhibitory at any concentration tested) [2]: no

Molecule: chromomycin A
- ability to inhibit Rev binding (inhibitory at any concentration tested) [2]: no

Molecule: gentamicin C
- concentration at which inhibitory to Rev binding ([2]; 67-nt RNA probe): 100 μm
- inhibiting the binding of Rev to the RRE [2]: effective

Molecule: olivomycin
- ability to inhibit Rev binding (inhibitory at any concentration tested) [2]: no

Molecule: thiostreption
- ability to inhibit Rev binding (inhibitory at any concentration tested) [2]: no

Molecule: tunicamycin
- ability to inhibit Rev binding (inhibitory at any concentration tested) [2]: no

Molecule: vineomycin
- ability to inhibit Rev binding (inhibitory at any concentration tested) [2]: no
